Assay results reported in ChEMBL document CHEMBL1157046, “QSAR modeling of taxane analogues against colon cancer” (Eur J Med Chem, 2010).

System: HCT-116
Experiment: Cytotoxicity against human HCT116 cells after 72 hrs
Assay type: functional, cell-based
Details: HCT-116, 72 h

CCC(=O)O[C@@]12CO[C@@H]1C[C@H](O)[C@@]1(C)C(=O)[C@H](OC(C)=O)C3=C(C)[C@@H](OC(=O)[C@H](O)[C@@H](NC(=O)c4ccccc4)c4ccccc4)C[C@@](O)([C@@H](OC(=O)c4ccccc4)[C@H]21)C3(C)C
IC50: 2 nM

C=CC(=O)O[C@@]12CO[C@@H]1C[C@H](O)[C@@]1(C)C(=O)[C@H](OC(C)=O)C3=C(C)[C@@H](OC(=O)[C@H](O)[C@@H](NC(=O)c4ccccc4)c4ccccc4)C[C@@](O)([C@@H](OC(=O)c4ccccc4)[C@H]21)C3(C)C
IC50: 6.03 nM

CCCC(=O)O[C@@]12CO[C@@H]1C[C@H](O)[C@@]1(C)C(=O)[C@H](OC(C)=O)C3=C(C)[C@@H](OC(=O)[C@H](O)[C@@H](NC(=O)c4ccccc4)c4ccccc4)C[C@@](O)([C@@H](OC(=O)c4ccccc4)[C@H]21)C3(C)C
IC50: 1.1 nM

CC(=O)O[C@H]1C(=O)[C@@]2(C)[C@H]([C@H](OC(=O)c3ccccc3)[C@]3(O)C[C@H](OC(=O)[C@H](O)[C@@H](NC(=O)c4ccccc4)c4ccccc4)C(C)=C1C3(C)C)[C@]1(OC(=O)C(C)C)CO[C@@H]1C[C@@H]2O
IC50: 5.01 nM

C=C(C)C(=O)O[C@@]12CO[C@@H]1C[C@H](O)[C@@]1(C)C(=O)[C@H](OC(C)=O)C3=C(C)[C@@H](OC(=O)[C@H](O)[C@@H](NC(=O)c4ccccc4)c4ccccc4)C[C@@](O)([C@@H](OC(=O)c4ccccc4)[C@H]21)C3(C)C
IC50: 4.47 nM

C/C=C/C(=O)O[C@@]12CO[C@@H]1C[C@H](O)[C@@]1(C)C(=O)[C@H](OC(C)=O)C3=C(C)[C@@H](OC(=O)[C@H](O)[C@@H](NC(=O)c4ccccc4)c4ccccc4)C[C@@](O)([C@@H](OC(=O)c4ccccc4)[C@H]21)C3(C)C
IC50: 2.29 nM

CC(=O)O[C@H]1C(=O)[C@@]2(C)[C@H]([C@H](OC(=O)c3ccccc3)[C@]3(O)C[C@H](OC(=O)[C@H](O)[C@@H](NC(=O)c4ccccc4)c4ccccc4)C(C)=C1C3(C)C)[C@]1(OC(=O)C3CC3)CO[C@@H]1C[C@@H]2O
IC50: 1 nM

CCCCC(=O)O[C@@]12CO[C@@H]1C[C@H](O)[C@@]1(C)C(=O)[C@H](OC(C)=O)C3=C(C)[C@@H](OC(=O)[C@H](O)[C@@H](NC(=O)c4ccccc4)c4ccccc4)C[C@@](O)([C@@H](OC(=O)c4ccccc4)[C@H]21)C3(C)C
IC50: 2 nM

CC(=O)O[C@H]1C(=O)[C@@]2(C)[C@H]([C@H](OC(=O)c3ccccc3)[C@]3(O)C[C@H](OC(=O)[C@H](O)[C@@H](NC(=O)c4ccccc4)c4ccccc4)C(C)=C1C3(C)C)[C@]1(OC(=O)C3CCC3)CO[C@@H]1C[C@@H]2O
IC50: 1.51 nM

CCCCCC(=O)O[C@@]12CO[C@@H]1C[C@H](O)[C@@]1(C)C(=O)[C@H](OC(C)=O)C3=C(C)[C@@H](OC(=O)[C@H](O)[C@@H](NC(=O)c4ccccc4)c4ccccc4)C[C@@](O)([C@@H](OC(=O)c4ccccc4)[C@H]21)C3(C)C
IC50: 6.03 nM

CC(=O)O[C@H]1C(=O)[C@@]2(C)[C@H]([C@H](OC(=O)c3ccccc3)[C@]3(O)C[C@H](OC(=O)[C@H](O)[C@@H](NC(=O)c4ccccc4)c4ccccc4)C(C)=C1C3(C)C)[C@]1(OC(=O)C3CCCC3)CO[C@@H]1C[C@@H]2O
IC50: 2 nM

CCOC(=O)O[C@@]12CO[C@@H]1C[C@H](O)[C@@]1(C)C(=O)[C@H](OC(C)=O)C3=C(C)[C@@H](OC(=O)[C@H](O)[C@@H](NC(=O)c4ccccc4)c4ccccc4)C[C@@](O)([C@@H](OC(=O)c4ccccc4)[C@H]21)C3(C)C
IC50: 1 nM

CCCOC(=O)O[C@@]12CO[C@@H]1C[C@H](O)[C@@]1(C)C(=O)[C@H](OC(C)=O)C3=C(C)[C@@H](OC(=O)[C@H](O)[C@@H](NC(=O)c4ccccc4)c4ccccc4)C[C@@](O)([C@@H](OC(=O)c4ccccc4)[C@H]21)C3(C)C
IC50: 2.57 nM

CC(=O)O[C@H]1C(=O)[C@@]2(C)[C@H]([C@H](OC(=O)c3ccccc3)[C@]3(O)C[C@H](OC(=O)[C@H](O)[C@@H](NC(=O)c4ccccc4)c4ccccc4)C(C)=C1C3(C)C)[C@]1(OC(=O)NC3CCC3)CO[C@@H]1C[C@@H]2O
IC50: 9.12 nM

CC(=O)O[C@H]1C(=O)[C@@]2(C)[C@H]([C@H](OC(=O)c3ccccc3)[C@]3(O)C[C@H](OC(=O)[C@H](O)[C@@H](NC(=O)c4ccccc4)c4ccccc4)C(C)=C1C3(C)C)[C@]1(OC(=O)n3ccnc3)CO[C@@H]1C[C@@H]2O
IC50: 794 nM

COC(=O)O[C@@]12CO[C@@H]1C[C@H](O)[C@@]1(C)C(=O)[C@H](OC(C)=O)C3=C(C)[C@@H](OC(=O)[C@H](O)[C@@H](NC(=O)c4ccccc4)c4ccccc4)C[C@@](O)([C@@H](OC(=O)c4ccccc4)[C@H]21)C3(C)C [BMS-188797]
IC50: 2 nM
